In patent US8450354B2, “Substituted imidazo[1,2-b]pyridazine derivatives, pharmaceutical compositions, and methods of use as β-secretase inhibitors” (High Point Pharmaceuticals, LLC, priority 2010, dated 2013):

Legend:
[1] = target: T1, BACE-1 enzyme (Homo sapiens, UniProt P56817); experiment: BACE Fluorescence Resonance Energy Transfer (FRET) Assay; format: biochemical; conditions: pH 4-4.5, 30 min pre-incubation, about 1.5 hours reaction, asterisk = mean
T1 construct: purchased R & D Systems 931AS
Procedure: BACE Fluorescence Resonance Energy Transfer (FRET) Assay
In the following assay, the proteolytic activity of BACE is measured by observing cleavage of a fluorescent group from a peptide substrate containing a rhodamine fluorescent donor and a quenching acceptor.
The inhibitory activity of compounds of Formula (I) may be compared to a statine derived control inhibitor STA200 (MP Biomedical Cat. #STA-200). The cleavage reaction occurs when a BACE-1 substrate (Invitrogen, Cat. #P2986) was added to a reaction mixture containing BACE-1 enzyme (R & D Systems, Cat. #931AS) and allowed to proceed for about 1.5 hours. Fluorescence, used as a marker of BACE activity, is monitored using 540 nm excitation and 585 nm emission wavelengths (Envision, Perkin Elmer).
A typical assay reaction contains BACE-1 enzyme-in assay buffer (50 mM sodium acetate, pH 4-4.5, 0.01% CHAPS (3-[(3-Cholamidopropyl)dimethylammonio]-1-propanesulfonate), 0.0125% TritonX-100, 0.006% EDTA) which is pre-incubated for 30 minutes with test compound in 7.5% DMSO. The reaction is initiated with the addition of BACE-1 substrate in assay buffer and allowed to proceed for about 1.5 hours at room temperature. Assays are conducted in black 384-well microtiter plates and scanned at room temperature using 540 nm excitation and 585 nm emission wavelengths.
In some instances, the percent inhibition at a given concentration is reported instead of the IC50.

[2] = Aβ Cell Based Assay (Aβ1-40 secretion, ELISA); parameters: species or system human; conditions: Homo sapiens, HEK293; HEK-APPwt cells, 6 hours incubation, reduction of Aβ1-40 secretion; asterisk = mean
Procedure: Aβ Cell Based Assay Procedure
In the following assay, the proteolytic activity of BACE in cells exposed to varying concentrations of a compound of interest is measured by observing the amount of Aβ1-40 secreted from HEK293 cells (Human Embryonic Kidney epithelial cell line) stably expressing wildtype human APP695 protein (HEK-APPwt cells).
HEK-APPwt cells were grown in high glucose DMEM (Dulbecco's Modified Eagles Medium SIGMA Cat. #D5796) supplemented with 25 mM HEPES (4-(2-hydroxyethyl)-1-piperazineethanesulfonic acid) (pH 7.4) (Invitrogen Cat. #15630-114), 0.1 mM NEAA (Non-essential Amino Acids) (BioWhittaker Cat. #13-114E), 10% fetal bovine serum (SIGMA Cat. #F4135) and 250 μg/mL hygromycin (Invitrogen Cat. #10687-010) in T-225 flasks at 37° C. with 5% CO2 and humidity control.
Test compounds were initially prepared in DMSO and diluted with DMEM media containing 2% FBS (Fetal bovine serum). Ten standard compound solutions were prepared having a range of concentrations. The standard compound solutions were used to determine the EC50 of the test compound. The range of concentrations chosen may depend on the compound's predicted potency.
To prepare cells for the assay, a flask containing HEK-APPwt cells were trypsinized briefly (1 mL trypsin), and once the cells detached, 4 mL of 10% FBS-DMEM was added to the flask. The detached cells were centrifuged at 900 rpm for 5 min to form a pellet.
The HEK-APPwt cell pellet was re-suspended with 10 mL DMEM media containing 2% FBS. 80 μL of the cell suspension was added to each well of a 96-well cell culture plate to give 100×10^4 cells/ml. 10 μL of a standard compound solution was added to each well of the 96-well cell culture plate followed by 10 μL of Alamar blue solution. The cells were incubated at 37° C. in a 5% CO2 incubator for 6 hours.
At the end of the incubation, the plates were removed from incubator, and the supernatant was collected. Aβ1-40 concentration in the medium was measured by using a commercial Aβ1-X ELISA kit (IBL, Japan Cat. #27729). Briefly, the ELISA plates were coated with an anti-human Aβ (N)(82E1) mouse IgG monoclonal antibody. A horseradish peroxidase conjugated anti-human Aβ11-28 mouse IgG monoclonal antibody was used for detection. The cell culture supernatant was diluted with EIA buffer+protease inhibitors (kit buffer containing protease inhibitors (1 mL PI/30 mL buffer)). A 100 μL aliquot of the diluted supernatant was added to each well of the ELISA plate and incubated for 6 hrs at 4° C. The ELISA plate was washed 8 times with phosphate buffered saline (PBS) containing 0.05% TWEEN 20.
A 100 μL of detection antibody was then added and incubated for 1 hour at 4° C. The plate was washed 8 times with PBS buffer containing 0.05% Tween 20 followed by addition of 100 μL of the chromogen tetramethylbenzidine (TMB). The plate was incubated in the dark at room temperature for about 30 min and a stop solution (1N H2SO4) was added.
The intensity of the color developed was measured at 450 nm. The optical density at 450 nm (OD450) is proportional to the concentration of human Aβ1-40 secreted by the cell. As a reference, N—[N-(3,5-difluorophenacetyl-L-alanyl)]—S-phenylglycine t-butyl ester (DAPT, a γ-secretase inhibitor) was used to indicate 100% inhibition of […]. Thus, the assay measures the ability of a compound of interest to reduce Aβ1-40 secretion. Compound potency is reported in Table 3 as the EC50 by calculating the percent inhibition at all concentration levels and the data were fit with non-linear curve fitting algorithm using GraphPad Prism.

T1 sequence (P56817 46-457 limits assumed): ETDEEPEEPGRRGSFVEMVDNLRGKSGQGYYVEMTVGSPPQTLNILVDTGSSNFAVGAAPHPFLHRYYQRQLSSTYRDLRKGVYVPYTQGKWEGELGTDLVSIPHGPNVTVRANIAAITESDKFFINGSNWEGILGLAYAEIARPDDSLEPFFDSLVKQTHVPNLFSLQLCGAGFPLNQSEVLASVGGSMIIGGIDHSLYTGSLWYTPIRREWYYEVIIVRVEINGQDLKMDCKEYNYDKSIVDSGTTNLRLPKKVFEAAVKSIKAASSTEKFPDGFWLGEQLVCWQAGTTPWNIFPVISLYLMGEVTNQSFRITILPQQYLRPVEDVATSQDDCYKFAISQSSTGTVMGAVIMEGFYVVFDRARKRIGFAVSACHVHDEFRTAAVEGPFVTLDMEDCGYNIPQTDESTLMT

IC50 [1]	EC50 [2]	SMILES
0.064 µM	1.27 µM	CC[C@@H](O)COc1ccc2nc(C(=O)Nc3nc4cc(-c5cc(F)cc(Cl)c5)ccc4[nH]3)cn2n1 [Example 105]
0.15 µM	1.09 µM	C[C@H](O)COc1ccc2nc(C(=O)Nc3nc4cc(-c5cccc(OC(F)(F)F)c5)ccc4[nH]3)cn2n1 [Example 145, 6-((S)-2-hydroxy-propoxy)-imidazo[1,2-b]pyridazine-2-carboxylic acid [5-(3-trifluoromethoxy-phenyl)-1H-benzoimidazol-2-yl]-amide]
0.371 µM	0.1 µM	C[C@@H](O)COc1ccc2nc(C(=O)Nc3nc4cc(-c5ccc(C(F)(F)F)c(Cl)c5)ccc4[nH]3)cn2n1 [Example 122, 6-((R)-2-hydroxy-propoxy)-imidazol[1,2-b]pyridazine-2-carboxylic acid [5-(3-chloro-4-trifluoromethyl-phenyl)-1H-benzoimidazol-2-yl]-amide]
0.277 µM	0.33 µM	O=C(Nc1nc2cc(-c3cc(F)cc(Cl)c3)ccc2[nH]1)c1cn2nc(OCC3(CO)CC3)ccc2n1 [Example 104]
0.318 µM	1.06 µM	C[C@@H](O)CCOc1ccc2nc(C(=O)Nc3nc4cc(-c5cc(F)cc(Cl)c5)ccc4[nH]3)cn2n1 [Example 118]
0.262 µM	0.56 µM	O=C(Nc1nc2cc(-c3cc(F)cc(Cl)c3)ccc2[nH]1)c1cn2nc(OC3COC4C(O)COC34)ccc2n1 (centres unmarked) [Example 133]
0.139 µM	0.86 µM	CC[C@H](O)COc1ccc2nc(C(=O)Nc3nc4cc(-c5cc(F)cc(Cl)c5)ccc4[nH]3)cn2n1 [Example 106]
0.136 µM	1.17 µM	C[C@H](O)[C@H](C)Oc1ccc2nc(C(=O)Nc3nc4cc(-c5cccc(C(F)(F)F)c5)ccc4[nH]3)cn2n1 [Example 101]
0.215 µM	0.79 µM	CC(C)[C@@H](O)COc1ccc2nc(C(=O)Nc3nc4cc(-c5cc(F)cc(Cl)c5)ccc4[nH]3)cn2n1 [Example 107]
0.279 µM	0.33 µM	CC(C)(O)CCOc1ccc2nc(C(=O)Nc3nc4cc(-c5cc(F)cc(Cl)c5)ccc4[nH]3)cn2n1 [Example 114]
0.528 µM	1.71 µM	O=C(Nc1nc2cc(-c3cc(F)cc(Cl)c3)ccc2[nH]1)c1cn2nc(OCCCO)ccc2n1 [Example 113]
0.376 µM	0.11 µM	C[C@@H](O)[C@@H](C)Oc1ccc2nc(C(=O)Nc3nc4cc(-c5cc(F)cc(Cl)c5)ccc4[nH]3)cn2n1 [Example 146, 6-((1R,2R)-2-hydroxy-1-methyl-propoxy)-imidazo[1,2-b]pyridazine-2-carboxylic acid [5-(3-chloro-5-fluoro-phenyl)-1H-benzoimidazol-2-yl]-amide]
0.344 µM	0.47 µM	O=C(Nc1nc2cc(-c3cc(F)cc(Cl)c3)ccc2[nH]1)c1cn2nc(OCC3(CO)CCC3)ccc2n1 [Example 132]
0.207 µM	0.27 µM	O=C(Nc1nc2cc(-c3cc(F)cc(Cl)c3)ccc2[nH]1)c1cn2nc(OC[C@@H]3CCCO3)ccc2n1 [Example 147, 6-[(S)-1-(Tetrahydro-furan-2-yl)methoxy]-imidazol[1,2-b]pyridazine-2-carboxylic acid [5-(3-chloro-5-fluoro-phenyl)-1H-benzoimidazol-2-yl]-amide]

More lines, now with the values behind:

SMILES	IC50 [1]	EC50 [2]
O=C(Nc1nc2cc(-c3cc(F)cc(Cl)c3)ccc2[nH]1)c1cn2nc(OCCN3CCOCC3)ccc2n1 [Example 50]	0.267 µM	0.58 µM
O=C(Nc1nc2cc(-c3cccc(OC(F)(F)F)c3)ccc2[nH]1)c1cn2nc(OCCn3cncn3)ccc2n1 [Example 29]	0.314 µM	2.58 µM
COc1ccc2nc(C(=O)Nc3nc4cc(-c5cc(F)cc(Cl)c5)ccc4[nH]3)cn2n1 [Example 7]	0.225 µM	0.7 µM
CC1(C)CCC(c2ccc3[nH]c(NC(=O)c4cn5nc(N6CC[C@H](O)C6)ccc5n4)nc3c2)CC1 [Example 86]	0.123 µM	2.46 µM
O=C(Nc1nc2cc(-c3cccc(OC(F)(F)F)c3)ccc2[nH]1)c1cn2nc(OCCN3CCCC3=O)ccc2n1 [Example 31]	0.313 µM	2.5 µM
O=C(Nc1nc2cc(-c3ccc(Cl)c(C(F)(F)F)c3)ccc2[nH]1)c1cn2nc(OCCN3CCOCC3)ccc2n1 [Example 64]	0.22 µM	0.97 µM
C[C@H](C[C@@H](C)O)Oc1ccc2nc(C(=O)Nc3nc4cc(-c5cccc(C(F)(F)F)c5)ccc4[nH]3)cn2n1 [Example 120, 6-((1R,3R)-3-hydroxy-1-methyl-butoxy)-imidazo[1,2-b]pyridazine-2-carboxylic acid [5-(3-trifluoromethyl-phenyl)-1H-benzoimidazol-2-yl]-amide]	0.455 µM	0.07 µM
C[C@@H](O)[C@@H](C)Oc1ccc2nc(C(=O)Nc3nc4cc(-c5cccc(C(F)(F)F)c5)ccc4[nH]3)cn2n1 [Example 100]	0.26 µM	0.7 µM
CC1(COc2ccc3nc(C(=O)Nc4nc5cc(-c6cc(F)cc(Cl)c6)ccc5[nH]4)cn3n2)COC1 [Example 98]	0.248 µM	0.44 µM
O=C(Nc1nc2cc(-c3cccc(C(F)(F)F)c3)ccc2[nH]1)c1cn2nc(OCCN3CCCC3=O)ccc2n1 [Example 25]	0.316 µM	1.35 µM
O=C(Nc1nc2cc(-c3cccc(C(F)(F)F)c3)ccc2[nH]1)c1cn2nc(OCCn3cncn3)ccc2n1 [Example 45]	0.198 µM	1.31 µM
O=C(Nc1nc2cc(-c3cccc(OC(F)(F)F)c3)ccc2[nH]1)c1cn2nc(OCCN3CCCCC3)ccc2n1 [Example 47]	0.24 µM	1.96 µM
O=C(Nc1nc2cc(-c3cc(F)cc(Cl)c3)ccc2[nH]1)c1cn2nc(OCCN3CCCC3=O)ccc2n1 [Example 54]	0.211 µM	0.87 µM
CC1(C)CCC(c2ccc3[nH]c(NC(=O)c4cn5nc(N6CCCC(O)C6)ccc5n4)nc3c2)CC1 (centres unmarked) [Example 84]	0.191 µM	1.71 µM
CN1CCN(CCOc2ccc3nc(C(=O)Nc4nc5cc(-c6cccc(C(F)(F)F)c6)ccc5[nH]4)cn3n2)CC1 [Example 41]	0.232 µM	2.62 µM
O=C(Nc1nc2cc(-c3cccc(C(F)(F)F)c3)ccc2[nH]1)c1cn2nc(OCCN3CCOCC3)ccc2n1 [Example 27, 6-(2-Morpholin-4-yl-ethoxy)-imidazol[1,2-b]pyridazine-2-carboxylic acid [5-(3-trifluoromethyl-phenyl)-1H-benzoimidazol-2-yl]-amide]	0.262 µM	0.58 µM
CN(C)CCN(C)CCOc1ccc2nc(C(=O)Nc3nc4cc(-c5cccc(C(F)(F)F)c5)ccc4[nH]3)cn2n1 [Example 43]	0.335 µM	2.88 µM
